Values of other authors in patent publication US20070161636A1, “Method of analyzing physiological function of target substance” (priority 2003, published 2007).
Like-named read-outs stand apart in the source and are kept apart here.

In the case of `O=C1OC2(c3ccccc31)c1cc(Br)c(O)c(Br)c1Oc1c2cc(Br)c(O)c1Br` [eosin, tetrabromofluorescein], the “maximum absorption (max λ)” value (in ethanol) is listed as 523 nm and the “maximum absorption (max λ)” value (in water) is listed as 517 nm.
